Laboratory results from PMC12373846, “Hemoglobin as a pseudoperoxidase and drug target for oxidative stress-related diseases” (Signal Transduction and Targeted Therapy, 2025).

Legend:
[1] = tested on: GPx; assay: GPx colorimetric assay; format: biochemical; conditions: standard GPx assay
Procedure: To assess the GPx activity, the reaction was prepared in a 96-well plate by adding glutathione reductase and glutathione solution, GPx enzyme (5µl, final concentration 60 U/ml), and the drug (1 µl of KDS12025 and HTEPB) to a total volume of 100 µl per well, followed by manufactural protocol (Abcam, ab102530). The plate was incubated at room temperature for 15 min to allow pre-reactions and drug interactions to occur. Following the incubation, the reaction was initiated by adding cumene hydroperoxide as the substrate to each well. The absorbance at 340 nm was measured in kinetic mode for 10–20 min, and the rate of NADPH consumption was used to calculate GPx activity, reflecting the enzyme’s ability to reduce the hydroperoxide substrate in the presence of the test compound.

[2] = tested on: APP/PS1 mice; assay: Passive avoidance test, APP/PS1 mice; format: in vivo, mouse
Procedure: (§1) For an animal model of AD, both sexes of 10- to 18-month-old APP/PS1 mice were maintained and used as previously described.[76],[77] To test the effects of novel H2O2-decomposing enhancers in the AD model, the mice were treated by i.p. injection with KDS12008 (3 mg/kg/day), KDS12017 (3 mg/kg/day), or KDS12025 (3 or 10 mg/kg/day) once per day for 1 or 2 weeks, depending on the experimental protocol. All drugs were dissolved in 200 μl of saline, and the amount of each drug was calculated on the basis of the weight (kg) of the mouse. Moreover, KDS12025 (3 mg/kg/day) was orally administered to the AD model for 2 weeks ad libitum.
Sufficiently handled mice were ready before the PAT. The mice were placed in a two-compartment (light and dark) shuttle chamber with a shock generator (Ugo Basile, Italy). On the first day, the mice were placed in the light compartment for acquisition. The mice were allowed to explore the light compartment for 60 s, after which the door separating the light and dark compartments was raised to allow the mice to enter the dark compartment. When the mice entered the dark compartment, the separating door was closed immediately, and an electrical foot shock (0.5 mA, 2 s duration) was delivered through the floor grid. The mice were then moved back to the home cage, and the retention trial was conducted 24 h after the acquisition. On the second day, the mice were again placed in the light compartment for the retention trial. After 60 s, the door was raised to allow the mice to enter the dark compartment. The latency to step through the dark compartment before and after the electric shock was recorded for up to 540 s.

[3] = tested on: APP/PS1 mice; assay: Immunohistochemistry of hippocampus, APP/PS1 mice; format: in vivo, mouse
Procedure: as §1
The mice were deeply anesthetized with vaporized 1% isoflurane and placed into stereotaxic frames (RWD Life Science, China). Following an incision on the midline of the scalp, a hole was drilled into the skull above the hippocampus. AAV-GFAP104-GFP or AAV-GFAP104-DTR-GFP was bilaterally microinjected into the hippocampal CA1 region (AP, −2.0 mm; ML, ±1.5 mm; DV, −1.65 mm from the bregma). Diphtheria toxin (2 mg/ml) was administered for 16 days as previously described.[77] For shRNA knockdown, AAV-pSicoR-Hbβ-shRNA-mCherry or AAV-pSicoR-Sc-shRNA-mCherry was microinjected into the same coordinate system. A total of 0.8 µl of the virus was injected via a syringe pump (KD Scientific, USA). The injection procedures were implemented before 5 weeks of the experiments. For cell type-specific knockdown, AAV-pSico-Hbβ-shRNA-GFP or AAV-pSico-Sc-shRNA-GFP was combined with either AAV-CaMKII-Cre-mCherry for neuronal targeting or AAV-GFAP-Cre-mCherry for astrocyte targeting. The viruses were bilaterally injected into the hippocampus and substantia nigra via the same stereotaxic coordinates and injection procedures. All viruses used in this study were produced at the Institute for Basic Science virus facility (IBS virus facility, Korea). To investigate the effects of 0.1 mg/kg/day KDS12025, GiD mice were injected with diphtheria toxin (2 mg/ml) daily for 16 days. Concurrently, KDS12025 was administered ad libitum (0.1 mg/kg/day) during the same period.
The mice were deeply anesthetized with 2% isoflurane and positioned on the operating table. After the abdomen was opened and the heart was exposed, the […] were perfused with saline, followed by 4% paraformaldehyde (PFA) in 0.1 M PBS. The mice were decapitated, and the brains were excised from the skull. Excised brains were postfixed in 4% PFA overnight at 4 °C and dehydrated in 30% sucrose for 48 h. Coronal hippocampal sections were cut at 30 µm thickness with a cryostat and stored in storage solution. For the ALS experiments, lumbar spinal cords (L2–L5) were also carefully dissected and immediately immersed in 4% PFA for postfixation. The sections were fully washed in 0.1 M PBS and incubated for 1 h in blocking solution (0.3% Triton X-100, 2% donkey and goat serum in 0.1 M PBS). Next, a mixture of primary antibodies in the blocking solution was used for immunostaining on a shaker overnight at 4 °C. The sections were washed in PBS three times. After washing, the sections were incubated with the corresponding fluorescent secondary antibodies for 1 h at RT. DAPI staining was performed by adding a DAPI solution (1:2000) during the second washing step. After the washing step was complete, the sections were mounted on cover slides with mounting medium. A series of fluorescence images were obtained with an LSM900 (Zeiss, Germany) confocal microscope or Lattice SIM Elyra 7 (Zeiss, Germany). The 15–22 μm Z stack images in 1–2 μm steps were processed for image analysis, which was performed via the ImageJ (NIH, US) and ZEN digital imaging for light microscopy blue system (Zeiss, Germany) programs.

[4] = 3 mg/kg/day i.p., 16 times, Fig. S10b
[5] = APP+KDS12025 3 mg/kg/day ad libitum, Fig. 5m

CNc1ccc(NCCc2ccccc2OC)cc1.Cl [KDS12025, N^1-(2-methoxyphenethyl)-N^4-methylbenzene-1,4-diamine hydrochloride salt]
effect on GPx activity [1]: did not affect other peroxidases | PAT transfer latency, acquisition [2, 4]: 29.03±6.431 | PAT transfer latency, retrieval [2, 4]: 291.0±68.80 | PAT transfer latency, acquisition ([2]; 3mpk i.p., 7 times, Fig. S10g): 36.47±13.39 | PAT transfer latency, retrieval ([2]; 3mpk i.p., 7 times, Fig. S10g): 341.7±71.16 | PAT transfer latency, acquisition ([2]; 10mpk i.p., 7 times, Fig. S10g): 66.00±15.30 | PAT transfer latency, retrieval ([2]; 10mpk i.p., 7 times, Fig. S10g): 508.8±49.93 | PAT transfer latency, acquisition [2, 5]: 21.17±3.843 | PAT transfer latency, retrieval [2, 5]: 254.3±56.96 | mean Hbβ intensity in GFAP-positive areas ([3]; 3 mg/kg/day ad libitum, Fig. 5e): WT (70.03±1.523, n=55), APP (62.3±1.219, n=65), APP+KDS12025 (ad libitum) (68.67±2.358, n=54) One-way ANOVA with Tukey's multiple comparisons test, F(2,171) = 6.123, p = 0.003 WT vs. APP, p = 0.004; WT vs. APP+KDS12025 (ad libitum), p = 0.85; APP vs. APP+KDS12025 (ad libitum), p = 0.02 | mean GFAP intensity in GFAP-positive areas ([3]; 3 mg/kg/day ad libitum, Fig. 5f): WT (61.01±2.28, n=6), APP (114.3±9.536, n=6), APP+KDS12025 (ad libitum) (64.48±6.98, n=6) One-way ANOVA with Tukey's multiple comparisons test, F(2,14) = 17.24, p < 0.001 WT vs. APP, p < 0.001; WT vs. APP+KDS12025 (ad libitum), p = 0.89; APP vs. APP+KDS12025 (ad libitum), p < 0.001 | Sholl analysis, sum of intersections ([3]; 3 mg/kg/day ad libitum, Fig. 5g): WT (31.45±3.606, n=11), APP (63.19±5.017, n=16), APP+KDS12025 (ad libitum) (33.69±3.3, n=13) One-way ANOVA with Tukey's multiple comparisons test, F(2,37) = 18.10, p < 0.001 WT vs. APP, p < 0.001; WT vs. APP+KDS12025 (ad libitum), p = 0.94; APP vs. APP+KDS12025 (ad libitum), p < 0.001 | Sholl analysis, ending radius ([3]; 3 mg/kg/day ad libitum, Fig. 5i): WT (110.0±6.606, n=11), APP (135.6±5.625, n=16), APP+KDS12025 (ad libitum) (103.1±7.794, n=13) One-way ANOVA with Tukey's multiple comparisons test, F(2,37) = 7.249, p = 0.002 WT vs. APP, p = 0.03; WT vs. APP+KDS12025 (ad libitum), p = 0.77; APP vs. APP+KDS12025 (ad libitum), p = 0.003 | Sholl analysis, number of intersections ([3]; 3 mg/kg/day ad libitum, Fig. 5j): Two-way ANOVA with Tukey's multiple comparison test, F (2,378) = 37.72, p < 0.001 WT (2.028, n=12), APP (4.318, n=17), APP+KDS12025 (ad libitum) (2.392, n=12) WT vs. APP, p < 0.001 (***); WT vs. APP+KDS12025 (ad libitum), p = 0.52; APP vs. APP+KDS12025 (ad libitum), p < 0.001 (^###) | Sholl analysis, ramification index ([3]; 3 mg/kg/day ad libitum, Fig. 5h): WT (1.617±0.2177, n=11), APP (7.134±1.523, n=16), APP+KDS12025 (ad libitum) (2.808±0.6584, n=13) One-way ANOVA with Tukey's multiple comparisons test, F(2,37) = 6.945, p = 0.003 WT vs. APP, p = 0.004; WT vs. APP+KDS12025 (ad libitum), p = 0.76; APP vs. APP+KDS12025 (ad libitum), p = 0.02 | mean intensity of GABA in GFAP-positive area ([3]; 3 mg/kg/day ad libitum, Fig. S11c): WT (41.73±1.1951, n=19), APP (50.90±1.074, n=41), APP+KDS12025 (ad libitum) (44.45±1.015, n=28) One-way ANOVA with Tukey's multiple comparisons test, F(2,85) = 14.24, p < 0.001 WT vs. APP, p < 0.001; WT vs. APP+KDS12025 (ad libitum), p = 0.38; APP vs. APP+KDS12025 (ad libitum), p < 0.001 | mean intensity of 8-OHdG in GFAP-positive area ([3]; 3 mg/kg/day ad libitum, Fig. S11d): WT (1903±72.86, n=32), APP (2435±66.11, n=58), APP+KDS12025 (ad libitum) (1951±48.61, n=57) One-way ANOVA with Tukey's multiple comparisons test, F(2,144) = 23.42, p < 0.001 WT vs. APP, p < 0.001; WT vs. APP+KDS12025 (ad libitum), p = 0.88; APP vs. APP+KDS12025 (ad libitum), p < 0.001 | mean intensity of Iba1 in the hippocampus ([3]; 3 mg/kg/day i.p., Fig. S10e): 1343±38.44 | mean intensity of GFAP in the hippocampus ([3]; 3 mg/kg/day i.p., Fig. S10d): 1190±87.29 | mean intensity of GFAP in the hippocampus ([3]; 3mpk i.p., Fig. S10i): 59.33±6.459 | mean intensity of GFAP in the hippocampus ([3]; 10mpk i.p., Fig. S10i): 56.71±4.775 | GFAP-positive area ([3]; APP+ScRNA+KDS12025, Fig. 6i): 142.4±8.715 | GFAP intensity ([3]; APP+ScRNA+KDS12025, Fig. 6j): 124.3±1.773 | Hbβ intensity in GFAP-positive areas ([3]; APP+ScRNA+KDS12025, Fig. 6h): 10.10±0.4531 | Sholl analysis, sum of intersections ([3]; APP+ScRNA+KDS12025, Fig. S16e): 142.4±8.715 | Sholl analysis, ending radius ([3]; APP+ScRNA+KDS12025, Fig. S16f): 54.48±2.319 | Sholl analysis, number of intersections ([3]; APP+ScRNA+KDS12025, Fig. S16g): 4.984±0.7027 | GFAP-positive area ([3]; APP+shHbβ+KDS12025, Fig. 6i): 234.3±16.93 | GFAP intensity ([3]; APP+shHbβ+KDS12025, Fig. 6j): 146.8±2.262 | Hbβ intensity in GFAP-positive areas ([3]; APP+shHbβ+KDS12025, Fig. 6h): 6.275±0.4473 | Sholl analysis, sum of intersections ([3]; APP+shHbβ+KDS12025, Fig. S16e): 234.3±16.93 | Sholl analysis, ending radius ([3]; APP+shHbβ+KDS12025, Fig. S16f): 100.4±6.075 | Sholl analysis, number of intersections ([3]; APP+shHbβ+KDS12025, Fig. S16g): 5.314±0.9626 | Hbβ intensity in GFAP-positive areas ([3]; APP+shHbβ::CaMKII+KDS12025, Fig. 6m): 110.5±1.59 | GFAP-positive area ([3]; APP+shHbβ::CaMKII+KDS12025, Fig. 6n): 55.98±5.45 | GFAP intensity ([3]; APP+shHbβ::CaMKII+KDS12025, Fig. 6o): 131.4±3.56 | Sholl analysis, sum of intersections ([3]; APP+shHbβ::CaMKII+KDS12025, Fig. S17b): 42.1±3.9 | Sholl analysis, ending radius ([3]; APP+shHbβ::CaMKII+KDS12025, Fig. S17c): 80.3±6.8 | Hbβ intensity in GFAP-positive areas ([3]; APP+shHbβ::GFAP+KDS12025, Fig. 6m): 87.46±1.26 | GFAP-positive area ([3]; APP+shHbβ::GFAP+KDS12025, Fig. 6n): 134.3±10.91 | GFAP intensity ([3]; APP+shHbβ::GFAP+KDS12025, Fig. 6o): 152.1±5.50 | Sholl analysis, sum of intersections ([3]; APP+shHbβ::GFAP+KDS12025, Fig. S17b): 57.9±3.7 | Sholl analysis, ending radius ([3]; APP+shHbβ::GFAP+KDS12025, Fig. S17c): 109.8±5.4
